Experimental findings from ChEMBL document CHEMBL2380205, “Discovery of a new class of natural product-inspired quinazolinone hybrid as potent antileishmanial agents” (J Med Chem, 2013) are described below.

A short description of data set [1]: Lipophilicity, log P of the compound. The note with it: octanol/water. It is filed as physicochemical.
Data set [2] can be described thus: Selectivity index, ratio of CC50 for mouse J774A1 cells to IC50 for amastigotes of Leishmania donovani MHOM/IN/60/Dd8 infected in mouse J-774A.1 cells. Type of data set: functional, J774.A1.
For data set [3], the system named is Leishmania donovani. Description: Antileishmanial activity against promastigotes of Leishmania donovani MHOM/IN/60/Dd8 after 72 hrs by luciferase reporter gene assay. Type of data set: functional, organism-based. The note with it: MHOM/IN/60/Dd8, 72 h. A general note: Reporter assays use an easily measured gene product as a stand-in for the process of interest.

Data set [4] can be described thus: Cytotoxicity against mouse J774A1 cells after 72 hrs by MTT assay. It is filed as cell-based, J774.A1. (In general: Tetrazolium dyes change colour on reduction, which living cells bring about.)
The test system of data set [5] is Leishmania donovani. Put plainly: Antileishmanial activity against amastigotes of Leishmania donovani MHOM/IN/60/Dd8 infected in golden hamster assessed as amastigote count at 30 mg/kg/day, po administered for 5 days measured on day 7 of post last dose by Giemsa staining. Type of data set: functional.
Data set [6] deals with Leishmania donovani. Description: Antileishmanial activity against amastigotes of Leishmania donovani MHOM/IN/60/Dd8 infected in mouse J-774A.1 cells after 72 hrs by luciferase reporter gene assay. Type of data set: functional, organism-based. The following applies: MHOM/IN/60/Dd8, J774.A1, 72 h.
Data set [7] has as its system Leishmania donovani. Description: Ratio of miltefosine IC50 to compound IC50 for amastigotes of Leishmania donovani MHOM/IN/60/Dd8 infected in mouse J-774A.1 cells. It is filed as functional, J774.A1.
Data set [8] is described as follows: Cytotoxicity against african green monkey Vero cells after 72 hrs by MTT assay. The following applies: chlorocebus sabaeus. It is filed as cell-based.
The subject of data set [9] is Rattus norvegicus. Put plainly: Mean residence time in Sprague-Dawley rat at 5 mg/kg, iv. It is filed as ADME, organism-based. Details: dose 5 mg/kg, route intravenous. The following applies: in vivo.
Data set [10] deals with Leishmania. Description: Antileishmanial activity against amastigotes of Leishmania infected mouse J774A1 cells assessed as induction of nitric oxide generation after 24 hrs by ELISA (reference value: 4.65 uM). Type of data set: functional, J774.A1. For orientation: In an ELISA, binding on a coated surface is turned into a signal by an enzyme label.
The nature of data set [11]: Oral bioavailability in Sprague-Dawley rat at 10 mg/kg. Type of data set: ADME, organism-based. The note with it: in vivo.
The subject of data set [12] is Rattus norvegicus. Put plainly: AUC (0 to t) in Sprague-Dawley rat at 10 mg/kg, po. Type of data set: ADME, organism-based, Plasma. Details: dose 10 mg/kg, route oral. The note with it: in vivo.
The subject of data set [13] is Leishmania. Description: Antileishmanial activity against amastigotes of Leishmania infected in mouse J-774A.1 cells assessed as increase in TNF-alpha production at IC50 after 24 hrs by ELISA relative to control. Type of data set: functional, J774.A1.
In data set [14] the test system is Leishmania. Put plainly: Antileishmanial activity against amastigotes of Leishmania infected in mouse J-774A.1 cells assessed as decrease in […] production at IC50 after 24 hrs by ELISA relative to control. It is filed as functional, J774.A1.
Data set [15] is described as follows: Cmax in Sprague-Dawley rat at 10 mg/kg, po. Type of data set: ADME, organism-based. The arrangement: dose 10 mg/kg, route oral. The note with it: in vivo.
A short description of data set [16]: Mean residence time in Sprague-Dawley rat at 10 mg/kg, po. It is filed as ADME, organism-based. Details: dose 10 mg/kg, route oral. The following applies: in vivo.
The test system of data set [17] is Rattus norvegicus. Put plainly: Volume of distribution at steady state in Sprague-Dawley rat at 5 mg/kg, iv. Type of data set: ADME, organism-based. Details: dose 5 mg/kg, route intravenous. The following applies: in vivo.
A short description of data set [18]: Tmax in Sprague-Dawley rat at 10 […], po. It is filed as ADME, organism-based. The note with it: in vivo.
The subject of data set [19] is Rattus norvegicus. Put plainly: Clearance in Sprague-Dawley rat at 10 mg/kg, po. It is filed as ADME, organism-based. The arrangement: dose 10 mg/kg, route oral. The following applies: in vivo.
Data set [20] deals with Leishmania. Put plainly: Antileishmanial activity against amastigotes of Leishmania infected in mouse J-774A.1 cells assessed as increase in IL-12 production at IC50 after 24 hrs by ELISA relative to control. It is filed as functional, J774.A1.
Data set [21] can be described thus: Cmax in Sprague-Dawley rat at 5 mg/kg, iv. Type of data set: ADME, organism-based. Details: dose 5 mg/kg, route intravenous. The note with it: in vivo.
In data set [22] the test system is Rattus norvegicus. Description: Elimination half life in Sprague-Dawley rat at 5 mg/kg, iv. The following applies: in vivo. It is filed as ADME, organism-based. The arrangement: dose 5 mg/kg, route intravenous.
For data set [23], the target named is Albumin (Bos taurus, UniProt P02769). Description: Binding affinity to bovine serum albumin by fluorescence spectrophotometry. Type of data set: ADME. The note with it: cattle, isolated protein.
Albumin, sequence (P02769 whole entry): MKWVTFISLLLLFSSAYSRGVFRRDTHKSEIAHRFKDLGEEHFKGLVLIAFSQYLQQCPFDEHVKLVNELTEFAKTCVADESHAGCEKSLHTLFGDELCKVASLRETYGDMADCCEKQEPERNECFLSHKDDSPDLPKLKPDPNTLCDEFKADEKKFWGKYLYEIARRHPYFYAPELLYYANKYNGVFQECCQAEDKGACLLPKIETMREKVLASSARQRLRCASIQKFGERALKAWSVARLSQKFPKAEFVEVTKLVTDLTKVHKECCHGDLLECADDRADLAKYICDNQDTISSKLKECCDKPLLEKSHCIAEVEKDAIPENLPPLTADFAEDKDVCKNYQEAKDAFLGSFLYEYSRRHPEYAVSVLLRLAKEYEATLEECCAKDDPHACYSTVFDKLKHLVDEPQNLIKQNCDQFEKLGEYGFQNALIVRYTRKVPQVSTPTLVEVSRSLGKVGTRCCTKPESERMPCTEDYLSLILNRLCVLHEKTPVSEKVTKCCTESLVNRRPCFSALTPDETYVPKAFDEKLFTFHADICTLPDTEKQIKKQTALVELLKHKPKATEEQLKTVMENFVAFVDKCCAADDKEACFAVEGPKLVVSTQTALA
Data set [24] concerns Leishmania donovani. Put plainly: Antileishmanial activity against amastigotes of Leishmania donovani MHOM/IN/60/Dd8 infected in golden hamster assessed as amastigote count at 50 mg/kg/day, ip administered for 5 days measured on day 7 of post last dose by Giemsa staining. The following applies: MHOM/IN/60/Dd8, ip, route intraperitoneal. It is filed as functional.
A short description of data set [25]: AUC (0 to t) in Sprague-Dawley rat at 5 mg/kg, iv. The following applies: plasma. Type of data set: ADME, organism-based. Details: dose 5 mg/kg, route intravenous.
A short description of data set [26]: Elimination half life in Sprague-Dawley rat at 10 mg/kg, po. Type of data set: ADME, organism-based. The arrangement: dose 10 mg/kg, route oral. The note with it: in vivo, read-out: beta t1/2 (converted).
Data set [27] in a line: Tmax in Sprague-Dawley rat at 5 mg/kg, iv. The arrangement: dose 5 mg/kg, route intravenous. The note with it: in vivo. Type of data set: ADME, organism-based.
For data set [28], the system named is Rattus norvegicus. Description: Volume of distribution at steady state in Sprague-Dawley rat at 10 mg/kg, po. Type of data set: ADME, organism-based. The arrangement: dose 10 mg/kg, route oral. The following applies: in vivo.
Data set [29] has as its system Rattus norvegicus. Description: Clearance in Sprague-Dawley rat at 5 mg/kg, iv. It is filed as ADME, organism-based. Details: dose 5 mg/kg, route intravenous. The note with it: in vivo.
Data set [30] relates to Leishmania. Description: Antileishmanial activity against amastigotes of Leishmania infected in mouse J-774A.1 cells assessed as decrease in IL-10 production at IC50 after 24 hrs by ELISA relative to control. It is filed as functional, J774.A1.

Bounds are passed on as bounds.

`CCCCCCCCCCCCCCCCOP(=O)([O-])OCC[N+](C)(C)C` [MILTEFOSINE] returned a logP in data set [1] of -0.21. Moreover, the “Ratio CC50/IC50” value in data set [2] is reported as 1.48. Besides, the IC50 is 1050 nM in data set [3] and 8.4 µM in data set [6]. The compound further displayed a cytotoxic concentration (CC50) at 72 h in [4] of 12.4 µM. The inhibition in vivo at 30 mg/kg/day in data set [5] stood at 98.1%.
Regarding `CN1CCN(c2ccc(-c3cc(-c4ccc(C5NC(=O)c6ccccc6N5)cc4)nc(N)n3)cc2)CC1` (stereo unspecified), the “Ratio CC50/IC50” value in data set [2] was 15.16. In addition, in data set [7], the “Ratio IC50” value came to 13. Moreover, the IC50 was 1750 nM in data set [3] and 0.65 µM in [6]. The figures for the CC50 at 72 h in [4] and in data set [8] were 10.2 µM and 8.32 µM, respectively.
On to `CC1(c2ccc(Nc3nc(N4CCCCC4)nc(N4CCCCC4)n3)cc2)NC(=O)c2ccccc2N1` (stereo unspecified), for which the MRT in [9] came out at 3.07 h; in [16], 3.01 h. Further, the Activity in data set [10] was determined as 15.72 µM. For the same compound, the bioavailability in [11] came out at 5.75%. Also, the AUCt in data set [12] was found to be 327 ng·h/mL. The “fold change (FC)” value is recorded as more than 9 in data set [13], 2.8 in [14], 6 in data set [20] and more than 3 in data set [30]. For the same compound, the Cmax in data set [15] was 108 ng/mL; in data set [21] it was 1830 ng/mL. Besides, the figures for the Vdss in [17] and in [28] were 5.44 L/kg and 5.39 L/kg, respectively. The Tmax was determined as 2 h in data set [18] and 4.8 min in data set [27]. Also, the CL in [19] was 1.79 L/h/kg; in data set [29] it was 1.77 L/h/kg. Besides, the logP in [1] was determined as 6.23. The “Ratio CC50/IC50” value in [2] is on record as more than 101.26. Also, the “beta t1/2” value in [22] stood at 50.4 min. For the same compound, in [23], the KSV was found to be 10 ×10⁴ L/mol. The same compound had a Kq in data set [23] of 10 ×10¹² L/mol/s. Also, the inhibition in vivo at 50 mg/kg/day in data set [24] was found to be 73.2%. In data set [25], this compound yielded an AUC(0-t) of 2840 ng·h/mL. Also, the IC50 came to 7050 nM in data set [3] and 3.95 µM in data set [6]. The 50% cytotoxic concentration (CC50) at 72 h in [4] and in [8] was more than 400 µM each time. Moreover, in data set [26], the half-life is 75.6 min.

As usually defined, the logP is a log measure of how a compound divides between an organic and an aqueous phase. By IC50 is commonly meant the concentration that inhibits the measured activity by half. Broadly, the CC50 is the concentration at which the toxic effect on the cells reaches its halfway point. In general, inhibition in vivo refers to the share of the control response that was lost under treatment. The term MRT denotes the average time that molecules of a dose stay in the body. As usually defined, the bioavailability is the share of a dose that reaches the circulation, judged against a reference dose that is usually intravenous. As usually defined, the Cmax is the maximum level reached in the sampled fluid or tissue. The term Tmax denotes the time at which the peak concentration occurs. The AUC(0-t) is the area under the concentration-time curve up to a stated or last time point.
